Test results: ChEMBL document CHEMBL5113400, “Design, synthesis, and biological evaluation of trizole-based heteroaromatic derivatives as Bcr-Abl kinase inhibitors” (Eur J Med Chem, 2022)

Experiments:
Bcr/Abl fusion protein [1] = target: Bcr/Abl fusion protein (Homo sapiens, UniProt P00519); assay: Inhibition of wild type Bcr-Abl (unknown origin) incubated for 1 hr in presence of ATP by ADP-Glo kinase assay; format: protein assay
Bcr/Abl fusion protein [2] = target: Bcr/Abl fusion protein (Homo sapiens, UniProt P00519, T315I); assay: Inhibition of Bcr-Abl T315I mutant (unknown origin) incubated for 1 hr in presence of ATP by ADP-Glo kinase assay; format: protein assay
K562 = assay: Antiproliferative activity against human K562 cells assessed as inhibition of cell growth incubated for 48 hrs by MTT assay; format: functional, cell-based; conditions: K562, 48 h
K562/Adr [3] = assay: Antiproliferative activity against human Adriamycin-resistant K562/Adr cells assessed as inhibition of cell growth at 30 uM incubated for 48 hrs by MTT assay; format: functional
BaF3 = assay: Antiproliferative activity against mouse BaF3 cells expressing Bcr-Abl T315I mutant assessed as inhibition of cell growth at 30 uM incubated for 72 hrs by CellTiter-Glo luminescent assay; format: functional
K562/Adr [4] = assay: Antiproliferative activity against human Adriamycin-resistant K562/Adr cells assessed as inhibition of cell growth incubated for 48 hrs by MTT assay; format: functional, cell-based

| IC50 (Bcr/Abl fusion protein [1]) | IC50 (Bcr/Abl fusion protein [2]) | IC50 (K562) | IC50 (K562/Adr [4]) | Compound | inhibition at 30 µM (K562/Adr [3]) | inhibition at 30 µM (BaF3) |
| --- | --- | --- | --- | --- | --- | --- |
| 43.6 nM | 310 nM | 10300 nM |  | Nc1n[nH]c2cc(-c3cn([C@@H]4CN[C@H](C(=O)Nc5ccc(Br)cc5)C4)nn3)ccc12 | 26.8% |  |
| 0.94 nM | 125 nM | 4710 nM |  | CC(C)(C)OC(=O)N1C[C@@H](n2cc(-c3ccc(N)nc3)nn2)C[C@H]1C(=O)Nc1ccc(Cl)c(C(F)(F)F)c1 | 48.6% | 66.7% |
| 0.83 nM | 200 nM | 5340 nM |  | O=C(Nc1n[nH]c2cc(-c3cn([C@@H]4CN[C@H](C(=O)Nc5ccc(Cl)cc5Cl)C4)nn3)ccc12)C1CC1 | 43.3% | 27.6% |
| 3.11 nM | 303 nM | 10400 nM | 25200 nM | Nc1ccc(-c2cn([C@@H]3CN[C@H](C(=O)Nc4ccc(Cl)c(C(F)(F)F)c4)C3)nn2)cn1 |  | 27.9% |
| 6.99 nM | 169 nM | 5020 nM |  | CC(=O)Nc1nc2ccc(-c3cn([C@@H]4CN[C@H](C(=O)Nc5ccc(Br)cc5)C4)nn3)nc2s1 | 32% | 40% |
| 14.5 nM | 261 nM | 27600 nM |  | CCN(CC)C(=O)c1cncc(-c2cn([C@@H]3CN[C@H](C(=O)Nc4ccc(Cl)c(C(F)(F)F)c4)C3)nn2)c1 | 32.4% |  |
| 41.5 nM | 3440 nM | 43800 nM |  | CC(C)(C)C(=O)Nc1ccc(-c2cn([C@@H]3CN[C@H](C(=O)Nc4ccc(Cl)c(C(F)(F)F)c4)C3)nn2)cn1 | 19.1% |  |
| 10.4 nM | 33.3 nM | 8160 nM | 48200 nM | O=C(Nc1nc2ccc(-c3cn([C@@H]4CN[C@H](C(=O)Nc5ccc(Br)cc5)C4)nn3)nc2s1)C1CC1 |  | 66.5% |
| 21.9 nM | 150 nM | 10500 nM |  | CC(C)(C)OC(=O)N1C[C@@H](n2cc(-c3ccc4c(N)n[nH]c4c3)nn2)C[C@H]1C(=O)Nc1ccc(Cl)c(C(F)(F)F)c1 | 37.1% | 53.8% |
| 23.5 nM | 59.6 nM | 10000 nM |  | CC(=O)Nc1nc2ccc(-c3cn([C@@H]4CN[C@H](C(=O)Nc5ccc(Cl)c(C(F)(F)F)c5)C4)nn3)nc2s1 |  | 44.8% |
| 14.7 nM | 410 nM | 8940 nM |  | CC(C)(C)OC(=O)N1C[C@@H](n2cc(-c3ccc4nc(N)sc4n3)nn2)C[C@H]1C(=O)Nc1ccc(Cl)cc1Cl | 28.3% | 86.7% |
| 28.2 nM | 121 nM | 15500 nM |  | CC(=O)Nc1n[nH]c2cc(-c3cn([C@@H]4CN[C@H](C(=O)Nc5ccc(Cl)c(C(F)(F)F)c5)C4)nn3)ccc12 | 23.4% | 21.8% |
| 9.45 nM | 118 nM | 24500 nM |  | Nc1nc2ccc(-c3cn([C@@H]4CN[C@H](C(=O)Nc5ccc(Cl)cc5Cl)C4)nn3)nc2s1 | 42.2% | 19.5% |
| 5.53 nM | 144 nM | 8080 nM |  | O=C(Nc1n[nH]c2cc(-c3cn([C@@H]4CN[C@H](C(=O)Nc5ccc(Br)cc5)C4)nn3)ccc12)C1CC1 | 39.6% | 20% |
| 4.8 nM | 388 nM | 9670 nM |  | CC(=O)Nc1nc2ccc(-c3cn([C@@H]4CN[C@H](C(=O)Nc5ccc(Cl)cc5Cl)C4)nn3)nc2s1 | 36.1% | 39.5% |
| 60.1 nM | 801 nM | 28800 nM |  | O=C(Nc1ccc(Cl)c(C(F)(F)F)c1)[C@@H]1C[C@H](n2cc(-c3cncc(C(=O)N4CCOCC4)c3)nn2)CN1 | 25.6% |  |

| IC50 (Bcr/Abl fusion protein [1]) | IC50 (Bcr/Abl fusion protein [2]) | IC50 (K562) | IC50 (K562/Adr [4]) | Compound | inhibition at 30 µM (K562/Adr [3]) | inhibition at 30 µM (BaF3) |
| --- | --- | --- | --- | --- | --- | --- |
| 6.88 nM | 25.2 nM | 29200 nM |  | CC(C)(C)OC(=O)N1C[C@@H](n2cc(-c3ccc4nc(N)sc4n3)nn2)C[C@H]1C(=O)Nc1ccc(Br)cc1 | 31.7% |  |
| 15.6 nM | 24.7 nM | 26200 nM | 187000 nM | Nc1nc2ccc(-c3cn([C@@H]4CN[C@H](C(=O)Nc5ccc(Cl)c(C(F)(F)F)c5)C4)nn3)nc2s1 |  |  |
| 202 nM | 1890 nM | 63000 nM |  | CC(=O)Nc1nc2ccc(-c3cn([C@@H]4CN[C@H](C(=O)Nc5ccc(F)c(F)c5)C4)nn3)nc2s1 | 38.4% |  |
| 27.1 nM | 178 nM | 24400 nM |  | Nc1nc2ccc(-c3cn([C@@H]4CN[C@H](C(=O)Nc5ccc(Br)cc5)C4)nn3)nc2s1 | 35.9% | 27.5% |
| 29.2 nM | 349 nM | 21000 nM |  | CN(C)CCNC(=O)c1cncc(-c2cn([C@@H]3CN[C@H](C(=O)Nc4ccc(Cl)c(C(F)(F)F)c4)C3)nn2)c1 | 14.5% | 21.8% |
| 0.65 nM | 338 nM | 8770 nM |  | O=C(Nc1ccc(-c2cn([C@@H]3CN[C@H](C(=O)Nc4ccc(Cl)c(C(F)(F)F)c4)C3)nn2)cn1)C1CC1 | 44.3% | 36.4% |
| 30.1 nM | 1340 nM | 40700 nM |  | O=C(Nc1nc2ccc(-c3cn([C@@H]4CN[C@H](C(=O)Nc5ccc(F)c(F)c5)C4)nn3)nc2s1)C1CC1 | 29.5% |  |
| 24.6 nM | 110 nM | 16200 nM |  | O=C(Nc1nc2ccc(-c3cn([C@@H]4CN[C@H](C(=O)Nc5ccc(Cl)c(C(F)(F)F)c5)C4)nn3)nc2s1)C1CC1 | 10.4% | 78.8% |
| 8.6 nM | 3670 nM | 28400 nM |  | Nc1n[nH]c2cc(-c3cn([C@@H]4CN[C@H](C(=O)Nc5ccc(Cl)cc5Cl)C4)nn3)ccc12 | 29.4% | 19.3% |
| 15 nM | 137 nM | 8320 nM |  | Nc1n[nH]c2cc(-c3cn([C@@H]4CN[C@H](C(=O)Nc5ccc(Cl)c(C(F)(F)F)c5)C4)nn3)ccc12 | 48.2% | 31.2% |
| 60.6 nM | 1880 nM | 12200 nM |  | CC(C)(C)OC(=O)N1C[C@@H](n2cc(-c3ccc4c(N)n[nH]c4c3)nn2)C[C@H]1C(=O)Nc1ccc(Cl)cc1Cl | 25.6% | 28.7% |
| 3.45 nM | 127 nM | 8980 nM |  | CC(=O)Nc1ccc(-c2cn([C@@H]3CN[C@H](C(=O)Nc4ccc(Cl)c(C(F)(F)F)c4)C3)nn2)cn1 | 33.6% | 26.5% |
| 50 nM | 237 nM | 3710 nM |  | CC(C)(C)OC(=O)N1C[C@@H](n2cc(-c3ccc4c(N)n[nH]c4c3)nn2)C[C@H]1C(=O)Nc1ccc(Br)cc1 | 23% | 20.1% |
| 10.6 nM | 667 nM | 10800 nM |  | CC(C)(C)OC(=O)N1C[C@@H](n2cc(-c3ccc4nc(N)sc4n3)nn2)C[C@H]1C(=O)Nc1ccc(Cl)c(C(F)(F)F)c1 | 27.4% | 52.3% |
| 128 nM | 1590 nM | 33200 nM |  | Nc1nc2ccc(-c3cn([C@@H]4CN[C@H](C(=O)Nc5ccc(F)c(F)c5)C4)nn3)nc2s1 | 27.4% |  |
